Assay results: patent US20060025485A1, “Hydroxybenazamide compounds for treatment of cancer” (priority 2004, published 2006)
“Also recorded” adds a separate entry of the source. Like-named read-outs stand apart in the source and are kept apart here.

Assays:
[1] = tested on: BON pancreatic carcinoid cells; test: cell culture pictures of BON cells; type: cell-based, human; conditions: 100 μM, 4 days, versus DMSO alone
Method: (§1) Cell culture. Human pulmonary carcinoid cells (NCI-H727) were obtained from American Type Culture Collection (Manassas, Va.) and human pancreatic carcinoid tumor cells, BON a generous gift of Drs. Evers and Townsend (Parekh et al., 1994), were maintained in RPMI 1640 and D-MEM-F12 media (Life Technologies, Rockville, Md.) respectively supplemented with 10% Fetal Bovine Serum (Sigma, St. Louis, Mo.), 100 IU/ml penicillin and 100 μg/ml streptomycin (Life Technologies) in a humidified atmosphere of 5% CO2 in air at 37° C. The maintenance of BON-raf cells and the activation of Raf-1 were followed as described previously (Sippel et al., 2003; Sippel and Chen, 2002; McMahon, 2001).
(§2) ZM 336372 treatment. H727 and BON cells were plated at 50-60% confluence in 100 mm cell culture dishes and incubated overnight.

[2] = tested on: BON pancreatic carcinoid cells; test: MTT cell proliferation assay, BON cells; type: cell-based, human; conditions: 100 μM, to day 10, versus DMSO
Method: MTT Cell Proliferation Assay. […] Cells were trypsinized and plated in triplicate to 24 wells plates and allowed to adhere overnight. […] Cells were incubated and maintained with change of treatments at 2 days. Cell growth rates were analyzed after the addition of MTT reagent to the cultured cells following manufacturer's instructions. Absorbance was determined using spectrophotometer at a wave length of 540 nm.

[3] = tested on: H727 pulmonary carcinoid cells; test: cell culture pictures of H727 cells; type: cell-based, human; conditions: 100 μM, days 2, 4 and 6, versus DMSO
Method: as §1, §2

[4] = tested on: hASH1; test: Western analysis of hASH1, BON cells; type: cell-based, human; conditions: 20 μM and 100 μM, 2 days
Method: as §2
(§3) Western blot analysis. Cellular extracts were prepared and quantified by BCA protein assay kit (Pierce, Rockford, Ill.) as previously described (Sippel et al., 2003). 30-50 μg of denatured proteins from each sample underwent electrophoresis on a SDS-polyacrylamide gel and transferred to a nitrocellulose membranes (Schleicher and Schuell, Keene, N.H.). Membranes were blocked for 1 hr in milk solution (1×PBS, 5% non-fat dry milk, 0.05% Tween-20) and then incubated at 4° C. overnight with primary antibodies. The following primary antibody dilutions were used: phospho-ERK 1/2 (1:1,000); phospho-MEK (1:1,000); phospho-Raf-1 (Serine338) (1:1,000); p21 and p18, (1:1,000); (Cell Signal Technology, Beverly, Mass.), Chromogranin A (1:2,000; Zymed Laboratories, San Francisco, Calif.); MASH-1 (1:1000, BD Pharmingen) and G3PDH (1:10,000; Trevigen, Gaithersburg, Md.). After primary antibody incubation, membranes were washed 3×5 min in PBS-T wash buffer (1×PBS, 0.05% Tween 20). Then the membranes were incubated with either 1:2,000 dilution of goat anti-rabbit or goat anti-mouse secondary antibody (Cell Signal Technology, Beverly, Mass.) depending on the source of the primary antibody for 1 hr at room temperature. […]

[5] = tested on: Chromogranin A; test: Western analysis of CgA, H727 cells; type: cell-based, human
Method: as §2
Western blot analysis. Cellular extracts were prepared and quantified by BCA protein assay kit (Pierce, Rockford, Ill.) as previously described (Sippel et al., 2003). 30-50 μg of denatured proteins from each sample underwent electrophoresis on a SDS-polyacrylamide gel and transferred to a nitrocellulose membranes (Schleicher and Schuell, Keene, N.H.). Membranes were blocked for 1 hr in milk solution (1×PBS, 5% non-fat dry milk, 0.05% Tween-20) and then incubated at 4° C. overnight with primary antibodies. The following primary antibody dilutions were used: phospho-ERK 1/2 (1:1,000); phospho-MEK (1:1,000); phospho-Raf-1 (Serine338) (1:1,000); p21 and p18, (1:1,000); (Cell Signal Technology, Beverly, Mass.), Chromogranin A (1:2,000; Zymed Laboratories, San Francisco, Calif.); MASH-1 (1:1000, BD Pharmingen) and G3PDH (1:10,000; Trevigen, Gaithersburg, Md.). After primary antibody incubation, membranes were washed 3×5 min in PBS-T wash buffer (1×PBS, 0.05% Tween 20). Then the membranes were incubated with either 1:2,000 dilution of goat anti-rabbit or goat anti-mouse secondary antibody (Cell Signal Technology, Beverly, Mass.) depending on the source of the primary antibody for 1 hr at room temperature. Membranes were washed 3×5 min in PBS-T wash buffer and developed by Immunstar™ HRP (Bio-Rad Laboratories, Hercules, Calif.) according to the manufacturer's directions. For the detection of hASH1 protein, membranes were developed with SuperSignal West Femto chemiluminescence reagent (Pierce).

[6] = tested on: hASH1; test: Western analysis of hASH1, H727 cells; type: cell-based, human
Method: as §2, §3

[7] = tested on: p21; test: Western analysis of cell cycle inhibitor p21, H727 cells; type: cell-based, human; conditions: 20 μM and 100 μM, 2 days
Method: as §2, §3

[8] = Drug toxicity assay, propidium iodide exclusion, BON cells; type: cell-based; conditions: human, 63 to 500 μM, read-out: viable cells by PI exclusion
Method: Drug Toxicity Assay. Briefly, cells were trypsinized and plated in a 6-well plate at 1-2×10^6 in triplicate and allowed to adhere overnight. […] As a control, DMSO was added. After incubation, the media was removed and cells were trypsinized and added to removed media. Cells were incubated on ice and 2.5 μg/ml Propidium Iodide (Sigma, St. Louis, Mo.) was added five minutes before flow cytometry (Ballestrero et al., 2004). Data was acquired using a FACSCalibur benchtop flow cytometer (Becton Dickenson, San Jose, Calif.) using CellQuest acquisition and analysis software.

[9] = tested on: Panc-1; test: Panc-1 MTT Assay; type: cell-based; design: dose or concentration left out as unconfirmed; conditions: Panc-1, three concentrations
[10] = tested on: pMEK and p-MAPK; test: Western blot of pMEK and p-MAPK, HepG2 cells; type: cell-based
Description: (§4) The results were assay using standard MTT, Western blot and cytoxocity assays.

[11] = tested on: pMEK and p-MAPK; test: Western blot of pMEK and p-MAPK, HT-29 cells; type: cell-based
Description: as §4

[12] = tested on: p-MAPK; test: Western blot of p-MAPK, Panc-1 cells; type: cell-based; conditions: all concentrations tested
Description: as §4

[13] = tested on: raf-1; conditions: cited from earlier work

With `Cc1ccc(NC(=O)c2cccc(N(C)C)c2)cc1NC(=O)c1ccc(O)cc1` [ZM336372, N-[5-(dimethyl-aminobensamido)-2-methylphenyl]-4-hydroxybenzamide] the “growth of BON cells in culture” value [1] was “dramatic growth arrest; also recorded: clear difference in growth”, the “BON cell proliferation/metabolism (MTT)” value [2] was “lack of cell metabolism; also recorded: clear suppression of growth; also recorded: growth suppression occurred as early as day 4 and was maintained out to day 10; also recorded: inhibited” and the “growth of H727 cells in culture” value [3] was “never reached confluence; also recorded: clear difference in growth; also recorded: paucity of cells reaching confluence”. For the same compound, the hASH1 level [4] was “reduction in both CgA and hASH1; also recorded: dose dependent decrease”, the CgA level ([5]; 20 μM and 100 μM, 2 days) was “reduction in both CgA and hASH1; also recorded: dose dependent decrease” and the “time of earliest detected reduction of CgA” value ([5]; 100 μM, 10 minutes to 48 hours) was 1 h. The “time of greatest comparative loss of CgA” value ([5]; 100 μM, 10 minutes to 48 hours) was 48 h, the “CgA level over days” value ([5]; 100 μM, days 2, 4 and 6) was “decrease in chromogranin; also recorded: CgA depletion was maintained to 6 days; also recorded: persistent reduction of CgA to day 6” and the hASH1 level ([6]; 20 μM and 100 μM, 2 days) was “reduction in both CgA and hASH1; also recorded: dose dependent decrease”. The “time of first recognized reduction of hASH1” value ([6]; 100 μM, 10 minutes to 48 hours) was 1 h, the p21 expression [7] was “induced; also recorded: significant induction” and the viability at 2 days [8] was roughly 70%. For the same compound, the “cellular proliferation (MTT)” value [9] was “inhibition at the highest concentration; also recorded: clear decrease”, the p-MAPK level [10] was “increase in the levels of both pMEK and p-MAPK” and the pMEK level [10] was “increase in the levels of both pMEK and p-MAPK”. For the same compound, the p-MAPK level [11] was “increase in the levels of both pMEK and p-MAPK”, the pMEK level [11] was “increase in the levels of both pMEK and p-MAPK” and the p-MAPK level [12] was “increase in p-MAPK following treatment at all concentrations tested”. The “activation of raf-1” value ([13]; COS1 cells) was greater than 100 fold, the “activation of raf-1” value ([13]; NIH3T3 cells) was greater than 100 fold and the “activation of raf-1” value ([13]; PC12 cells) was greater than 100 fold. The “raf-1 activation compared with EGF stimulation” value ([13]; Swiss 3T3 cells) was “much higher than that attained after stimulation with epidermal growth factor (EGF)”, the “time for which induction of raf-1 was sustained” value ([13]; Swiss 3T3 cells) was “at least 3 hours” and the “time of exposure after which induction of raf-1 occurred” value ([13]; Swiss 3T3 cells) was 60 min. For the same compound, the “activation of raf-1” value ([13]; human 293 cells) was greater than 100 fold.
